Results published in patent US12187767B2 (priority 2021, dated 2025).
“Also recorded” adds a separate entry of the source.

Key:
Format in all cases: cell-based
MDA-MB-231 cells [1] = test: Acetylcholinesterase (AchE) assay of exosome/EV release; conditions: MDA-MB-231 cells; for AChE on day 1 (initial increase): five-day treatment, mock 146.52; for average AChE concentration levels throughout day 1 to 5: five-day treatment at 37° C.
Protocol: (§1) 1.3. EV isolation and purification. EVs were isolated from cells by differential centrifugation as previously described (Ali SA. et al., 2010). Untreated cells were used as a control. Briefly, the above treated and untreated cell culture supernatants were centrifuged at 400×g for 10 minutes. The supernatants were transferred to a clear tube and centrifuged at 10,000×g for 30 minutes. The supernatants from the second spin were […] ultracentrifuged at 200,000×g for 2 hours to pellet the EVs. Finally, the EV pellets were re-suspended with PBS and stored at 4° C. until used for analysis.
(§2) 1.4. Exosome characterization by acetylcholinesterase (AchE) assay. Purified EVs were quantitated by measurement of AchE as described (Ellman et al., 1961). Briefly, a 100 mM dithibionitrobenzoic (DTNB) solution was prepared for use as a stock color indicator, and a 28.9 mg/mL acetylthiocholine iodide in PBS solution was prepared as a stock substrate. The stock substrate stock can be stored at −20° C. up to one month, while the color indicator can be stored at 4° C. for two weeks. A working solution was prepared by mixing 10 mL of PBS with 200 μL of Substrate and 500 μl of DTNB. 50 μL of each exosome sample was transferred to 96 well microtitre plates, and a standard curve was prepared using AchE from 0.98 mU/mL to 2000 mU/mL. After 50 μL of standards were added into separate wells, 200 μL of the working solution was added to all wells. After 20 min incubation, AchE activity was measured at 450 nm using a SpectroMax M5 fluorimeter.

MCF-7 cells [2] = test: as above; conditions: MCF-7 cells; for AchE concentrations on day 3 / AchE concentrations, initial increase: five-day treatment; for AchE concentrations on day 3: mock 69.15; for AchE concentrations, initial increase: initial increase on days 1 and/or 2, mock 155.13; for average AChE concentrations throughout days 1 to day 5: five-day treatment at 37° C.
Protocol: as §1, §2

MDA-MB-231 cells [3] = test: Western blot analysis of EV protein content; conditions: 48 hours treatment
Protocol: as §1
(§3) 1.6. Western blot analysis. EVs were isolated from culture supernatants as described above. Protein concentrations were determined by measuring absorbance at 280 nm (Nanodrop 2000). Protein samples were denatured in SDS-PAGE sample buffer by heating at 95° C. for 15 min. Criterion TGX Precast Gels (4-20% Bio-Rad, Richmond, CA) were used to separate the proteins and blotted as previously described (Huang MB. et al 2004). Blots were incubated with the primary antibodies, anti-CD63 and anti-Alix, followed by goat or rabbit anti-Ig secondary antibodies. Specific bands were detected using ECL chemiluminescent substrate (Santa Cruz Biotechnology, Santa Cruz, CA) and visualized on the ImageQuant LAS 4000 imaging system (GE Healthcare, Piscataway, NJ 08854).
(§4) Western blot analysis was used to examine the effects of the SMRwt peptides, PEG-SMRwt-Clu peptide and SMRwt-CPP peptide, and the mortalin inhibitors MKT-077, Omeprazole, and DMA on EV protein content in MCF-7, MDA-MB-231 and K562 cells. Negative control treatments included the PEG-SMRmut-Clu peptide, […] (SEQ ID NO: 49) and the SMRmut-CPP peptide, […] (SEQ ID NO: 50). EVs were isolated from all treated and untreated cell lines screened. Western blot analyses were carried out to evaluate the expression levels of the exosomal proteins, Alix, mortalin, and vimentin in MCF-7 cells (FIG. 7, Panel A, left sub-panel), MDA-MB-231 cells (FIG. 7, Panel A, middle sub-panel), and K562 cells (FIG. 7, Panel A, right sub-panel).

MCF-7 cells [4] = test: Western blot analysis of EV protein content; conditions: 48 hours treatment; for Alix expression in EVs / Vimentin expression in EVs: relative to negative controls
Protocol: as §1, §3, §4

K562 cells = test: Western blot analysis of EV protein content; conditions: 48 hours treatment
Protocol: as §1, §3, §4

[5] = test system: MCF-7, MDA-MB-231 and K562 cells; test: Exosome/EV release, overall statements across cell lines (AchE, NanoSight, Western blot); conditions: MCF-7, MDA-MB-231 and K562 cells; five days at 37° C.; AchE assay
Protocol: Acetylcholinesterase (AchE) assays, NanoSight analysis and Western blot analysis were performed to characterize EVs released from MCF-7 and MDA-MB-231 cells treated for 48 hr with the various peptides.
To further examine the underlying mechanism for blocking exosome release, a study was extended to examine the effects of the SMRwt peptides, PEG-SMRwt-Clu peptide and SMRwt-CPP peptide, and the mortalin inhibitors MKT-077, Omeprazole, and DMA on exosome release. In particular, acetylcholinesterase (AchE) assays, NanoSight analysis and Western blot analysis were performed to characterize EVs released from MCF-7, MDA-MB-231 and K562 cells. Panels A, B and C depict the relative numbers of EVs released as a function of time as measured by an acetylcholinesterase (AchE) assay in MCF-7 cells (FIG. 6, Panel A); MDA-MB-231 cells (FIG. 6, Panel B); and K562 cells (FIG. 6, Panel C).

Row | Molecule | AChE on day 1 (initial increase) (MDA-MB-231 cells [1]) [mU/mL] | AchE concentrations on day 3 (MCF-7 cells [2]) [mU/mL] | AchE concentrations, initial increase (MCF-7 cells [2]) [mU/mL] | Vimentin expression in EVs (MDA-MB-231 cells [3]) | Mortalin expression in EVs (MCF-7 cells [4]) | Alix expression in EVs (MCF-7 cells [4]) | Vimentin expression in EVs (MCF-7 cells [4]) | Alix expression in EVs (K562 cells) | Mortalin expression in EVs (K562 cells) | Vimentin expression in EVs (K562 cells) | average AChE concentration levels throughout day 1 to 5 (MDA-MB-231 cells [1]) [mU/mL] | average AChE concentrations throughout days 1 to day 5 (MCF-7 cells [2]) [mU/mL] | exosome/EV release (number of EVs released) [5] | Mortalin expression in EVs (MDA-MB-231 cells [3])
1 | AGFPVAAAGFPVGRKKRRQRRRPPQ (SEQ ID NO: 50) (Synthetic SMRmut-CPP) | 141.47 | 66.05 | 150.06 | – | – | – | – | – | – | – | – | – | – | –
2 | NXNAGFPVAAAGFPVHPLSKHPYWSQP (SEQ ID NO: 49) [PEG-SMRmut-Clu] | 146.79 | 69.0 | 151.5 | – | – | – | – | – | – | – | – | – | – | –
3 | CN(C)c1nc(N)c(C(=O)NC(=N)N)nc1Cl [DMA, 5-(N,N-Dimethyl)amiloride] | – | – | – | significantly decreased | no significant changes | not accompanied by significant reductions | significantly decreased | significantly decreased | significantly decreased | significantly increased | 37 | 26 | reduced the number of EVs released; also recorded: blocked exosome release | –
4 | COc1ccc2[nH]c([S+]([O-])Cc3ncc(C)c(OC)c3C)nc2c1 (stereo not drawn) [Omeprazole, 5-Methoxy-2-[[(4-methoxy-3,5-dimethyl-2-pyridinyl)methyl]sulfinyl]-1H-benzimidazole] | – | – | – | no significant change | no significant changes | not accompanied by significant reductions | significantly decreased | significantly decreased | significantly decreased | significantly increased | 25 | 26 | reduced the number of EVs released; also recorded: blocked exosome release | No significant change
